Tests used:
Assay type in all cases: in vivo
[1] = test system: Echinochloa oryzicola Vasing. (Eo); test: Test for herbicidal effect by paddy field soil treatment (Test Example 1); conditions: application amount (active ingredient) 100 g/10 a, examined at the 21st day from the treatment, index per Table 40
Method in brief: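 Scored on a standard scale at day 21 in the greenhouse: herbicidal effect of wettable powder applied to flooded water (3 cm depth) at 100 g a.i./10 ares, one day after sowing Eo into puddled paddy soil.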

rice (Or) = test: Test for crop selectivity by paddy field soil treatment (Test Example 4), phytotoxicity to rice; conditions: transplanted two-leaf stage rice, 100 g/10 a active ingredient, 21st day
Procedure: (§1) [table] <Test Example 4> Test For Crop Selectivity By Paddy Field Soil Treatment A paddy field soil was filled in a plastic pot of 100 cm^2 and subjected to puddling. Seeds of Echinochloa oryzicola Vasing. (Eo) were sowed; two-leaf stage seedlings of rice (Or) were transplanted in a depth of 2 cm; and water was filled in a depth of 3 cm. Next day, wettable powders produced in accordance with the Formulation 1 were diluted with water and dropped on the water surface. The application amount of each wettable powder was 100 g per 10 ares in terms of the active ingredient. Then, breeding was made in a greenhouse. At the 21st day from the treatment, the phytotoxicity and herbicidal effect of each wettable powder were examined in accordance with the standard shown in Table 40.

[2] = test system: Echinochloa oryzicola Vasing. (Eo); test: Test for crop selectivity by paddy field soil treatment (Test Example 4), herbicidal effect on Eo; conditions: 100 g/10 a active ingredient, 21st day
Procedure: as §1

[3] = test system: Echinochloa crus-galli (L.) Beauv. var. crusgall (Ec); test: Test for herbicidal effect by upland field soil treatment (Test Example 2), Ec
Method in brief: (§2)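 Pre-emergence soil treatment: wettable powder diluted in water and sprayed on soil just sown with Ec and Se seeds, delivering 100 g active ingredient per 10 ares in 100 liters per 10 ares. Herbicidal effect was rated against a fixed scale 21 days later, after greenhouse growth.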

[4] = test system: Setaria viridis (L.) Beauv. (Se); test: Test for herbicidal effect by upland field soil treatment (Test Example 2), Se
Method in brief: as §2

[5] = test system: Echinochloa crus-galli (L.) Beauv. var. crusgalli (Ec); test: Test for herbicidal effect by upland foliage treatment (Test Example 3); conditions: 100 g/10 a active ingredient, examined at 14th day
Method in brief: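 Scored 14 days post-spray against a graded standard: greenhouse-grown Ec, 2 weeks old in upland soil, received whole-foliage application of diluted wettable powder (100 g active ingredient per 10 ares, spray volume 100 L per 10 ares).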

[6] = 100 g/10 a active ingredient, examined at 21st day
[7] = application amount (active ingredient) 100 g/10 a, examined at the 21st day from the treatment, index per Table 40

Row | SMILES | Herbicidal effect to Eo [1] | Phytotoxicity to Or (rice (Or)) | Herbicidal effect to Eo [2] | Herbicidal effect to Ec [3, 6] | Herbicidal effect to Se [4, 6] | Herbicidal effect to Ec [5] | Herbicidal effect to Ec [3, 7] | Herbicidal effect to Se [4, 7]
1 | CC1(C)CC(S(=O)(=O)Cc2c(Cl)cccc2C(=O)OCc2cccc(Cl)c2)=NO1 [Compound 1-627] | 5 (A herbicidal effect or phytotoxicity of 90% or more) | 1 (A herbicidal effect or phytotoxicity of 10% to less than 30%) | 5 (A herbicidal effect or phytotoxicity of 90% or more) |  |  |  |  | 
2 | CC(C)C1(C)CC([S+]([O-])Cc2c(F)cccc2F)=NO1 (stereo not drawn) [Compound 1-367] | 5 (A herbicidal effect or phytotoxicity of 90% or more) | 1 (A herbicidal effect or phytotoxicity of 10% to less than 30%) | 5 (A herbicidal effect or phytotoxicity of 90% or more) |  |  |  |  | 
3 | O=S(=O)(Cc1c(F)cccc1F)C1=NOC2CCCCCCC12 (stereo not drawn) [Compound 1-519] | 5 (A herbicidal effect or phytotoxicity of 90% or more) | 0 (A herbicidal effect or phytotoxicity of 0% to less than 10%) | 5 (A herbicidal effect or phytotoxicity of 90% or more) |  |  |  |  | 
4 | CC1(C)CC(S(=O)(=O)Cc2ccccc2OCc2ccccc2)=NO1 [Compound 1-588] | 5 (A herbicidal effect or phytotoxicity of 90% or more) | 1 (A herbicidal effect or phytotoxicity of 10% to less than 30%) | 5 (A herbicidal effect or phytotoxicity of 90% or more) |  |  |  |  | 
5 | CC1(C)CC(S(=O)(=O)Cc2c(Cl)cccc2C(=O)OCc2ccc(Cl)cc2)=NO1 [Compound 1-628] | 5 (A herbicidal effect or phytotoxicity of 90% or more) | 0 (A herbicidal effect or phytotoxicity of 0% to less than 10%) | 5 (A herbicidal effect or phytotoxicity of 90% or more) |  |  |  |  | 
6 | CCC1(C)CC(S(=O)(=O)CCc2ccccc2)=NO1 (stereo not drawn) [Compound 1-456] | 5 (A herbicidal effect or phytotoxicity of 90% or more) | 0 (A herbicidal effect or phytotoxicity of 0% to less than 10%) | 5 (A herbicidal effect or phytotoxicity of 90% or more) |  |  |  |  | 
7 | CCC1(C)CC(S(=O)(=O)CCCc2ccccc2)=NO1 (stereo not drawn) [Compound 1-457] | 5 (A herbicidal effect or phytotoxicity of 90% or more) | 1 (A herbicidal effect or phytotoxicity of 10% to less than 30%) | 5 (A herbicidal effect or phytotoxicity of 90% or more) |  |  |  |  | 
8 | CC1(Cc2ccccc2)CC(S(=O)(=O)Cc2c(F)cccc2F)=NO1 (stereo not drawn) [Compound 1-377] | 5 (A herbicidal effect or phytotoxicity of 90% or more) | 0 (A herbicidal effect or phytotoxicity of 0% to less than 10%) | 5 (A herbicidal effect or phytotoxicity of 90% or more) |  |  |  |  | 
9 | CC1(C)CC(S(=O)(=O)Cc2c(Cl)cccc2C(=O)OCc2ccccc2)=NO1 [Compound 1-625] | 5 (A herbicidal effect or phytotoxicity of 90% or more) | 1 (A herbicidal effect or phytotoxicity of 10% to less than 30%) | 5 (A herbicidal effect or phytotoxicity of 90% or more) |  |  |  |  | 
10 | Fc1cccc(F)c1CSC1=NOC2CCCCC12 (stereo not drawn) [Compound 1-386] | 4 (A herbicidal effect or phytotoxicity of 70% to less than 90%) | 0 (A herbicidal effect or phytotoxicity of 0% to less than 10%) | 4 (A herbicidal effect or phytotoxicity of 70% to less than 90%) |  |  |  |  | 
11 | CC1(C)CC(S(=O)(=O)Cc2ccccc2N)=NO1 [Compound 1-552] | 4 (A herbicidal effect or phytotoxicity of 70% to less than 90%) | 1 (A herbicidal effect or phytotoxicity of 10% to less than 30%) | 4 (A herbicidal effect or phytotoxicity of 70% to less than 90%) |  |  |  |  | 
12 | CCS(=O)(=O)C1=NOC(C)(C)C1 [Compound 2-2] | 5 (A herbicidal effect or phytotoxicity of 90% or more) | 0 (A herbicidal effect or phytotoxicity of 0% to less than 10%) | 5 (A herbicidal effect or phytotoxicity of 90% or more) |  |  |  |  | 
13 | COCCOc1ccccc1CS(=O)(=O)C1=NOC(C)(C)C1 [Compound 1-579] | 5 (A herbicidal effect or phytotoxicity of 90% or more) | 1 (A herbicidal effect or phytotoxicity of 10% to less than 30%) | 5 (A herbicidal effect or phytotoxicity of 90% or more) |  |  |  |  | 
14 | CC1(COCc2c(F)cccc2F)CC(S(=O)(=O)Cc2c(F)cccc2F)=NO1 (stereo not drawn) [Compound 1-401] | 5 (A herbicidal effect or phytotoxicity of 90% or more) | 0 (A herbicidal effect or phytotoxicity of 0% to less than 10%) | 5 (A herbicidal effect or phytotoxicity of 90% or more) |  |  |  |  | 
15 | CC1(C)CC(S(=O)(=O)Cc2ccccc2C(=O)OCc2ccc(Cl)cc2)=NO1 [Compound 1-614] | 5 (A herbicidal effect or phytotoxicity of 90% or more) | 0 (A herbicidal effect or phytotoxicity of 0% to less than 10%) | 5 (A herbicidal effect or phytotoxicity of 90% or more) |  |  |  |  | 
16 | Cc1cccc(Cl)c1CS(=O)(=O)C1=NOC(C)(C)C1 [Compound 1-560] | 5 (A herbicidal effect or phytotoxicity of 90% or more) |  |  | 5 (A herbicidal effect or phytotoxicity of 90% or more) | 5 (A herbicidal effect or phytotoxicity of 90% or more) | 4 (A herbicidal effect or phytotoxicity of 70% to less than 90%) |  | 
17 | CC1(C)CC(S(=O)(=O)Cc2ccccc2F)=NO1 [Compound 1-32] | 5 (A herbicidal effect or phytotoxicity of 90% or more) |  |  |  |  | 5 (A herbicidal effect or phytotoxicity of 90% or more) | 5 (A herbicidal effect or phytotoxicity of 90% or more) | 5 (A herbicidal effect or phytotoxicity of 90% or more)
18 | CCOc1cccc(C(F)(F)F)c1CS(=O)(=O)C1=NOC(C)(C)C1 [Compound 1-585] | 5 (A herbicidal effect or phytotoxicity of 90% or more) |  |  | 5 (A herbicidal effect or phytotoxicity of 90% or more) | 5 (A herbicidal effect or phytotoxicity of 90% or more) | 5 (A herbicidal effect or phytotoxicity of 90% or more) |  | 
19 | CC1(C)CC(S(=O)(=O)Cc2cc(Br)cc(Br)c2)=NO1 [Compound 1-545] | 5 (A herbicidal effect or phytotoxicity of 90% or more) |  |  | 5 (A herbicidal effect or phytotoxicity of 90% or more) | 5 (A herbicidal effect or phytotoxicity of 90% or more) | 5 (A herbicidal effect or phytotoxicity of 90% or more) |  | 
20 | CCc1cccc(CC)c1CS(=O)(=O)C1=NOC(C)(C)C1 [Compound 1-502] | 5 (A herbicidal effect or phytotoxicity of 90% or more) |  |  | 5 (A herbicidal effect or phytotoxicity of 90% or more) | 5 (A herbicidal effect or phytotoxicity of 90% or more) | 5 (A herbicidal effect or phytotoxicity of 90% or more) |  | 
21 | CC1(C)CC(S(=O)(=O)Cc2cccc(Cl)c2F)=NO1 [Compound 1-184] | 5 (A herbicidal effect or phytotoxicity of 90% or more) |  |  |  |  | 4 (A herbicidal effect or phytotoxicity of 70% to less than 90%) | 5 (A herbicidal effect or phytotoxicity of 90% or more) | 4 (A herbicidal effect or phytotoxicity of 70% to less than 90%)
22 | O=S(=O)(Cc1c(F)cccc1F)C1=NOC2(CC2)C1 [Compound 1-380] | 5 (A herbicidal effect or phytotoxicity of 90% or more) |  |  |  |  | 4 (A herbicidal effect or phytotoxicity of 70% to less than 90%) | 5 (A herbicidal effect or phytotoxicity of 90% or more) | 4 (A herbicidal effect or phytotoxicity of 70% to less than 90%)
23 | COc1cccc(OC)c1CS(=O)(=O)C1=NOC(C)(C)C1 [Compound 1-535] | 5 (A herbicidal effect or phytotoxicity of 90% or more) |  |  | 5 (A herbicidal effect or phytotoxicity of 90% or more) | 5 (A herbicidal effect or phytotoxicity of 90% or more) | 4 (A herbicidal effect or phytotoxicity of 70% to less than 90%) |  | 
24 | Cc1cc(C)c(CS(=O)(=O)C2=NOC(C)(C)C2)c(C)c1 [Compound 1-529] | 5 (A herbicidal effect or phytotoxicity of 90% or more) |  |  | 5 (A herbicidal effect or phytotoxicity of 90% or more) | 5 (A herbicidal effect or phytotoxicity of 90% or more) | 5 (A herbicidal effect or phytotoxicity of 90% or more) |  | 

Source: US6841519B1, “Isoxazoline derivatives and herbicides containing the same as the active ingredient” (Kumiai Chemical Industry Co., Ltd., priority 1999, dated 2005)
